Reference: publication PMC10746103, “Development of a HPLC-MS/MS Method to Assess the Pharmacokinetics and Tumour Distribution of the Dimethylarginine Dimethylaminohydrolase 1 Inhibitors ZST316 and L-257 in a Xenograft Model of Triple-Negative Breast Cancer in Mice” (Molecules, 2023)
Several values for one entry are separate records, joined by “and”; a condition that tells them apart may be missing. Equal values may be shown once. Entries after “also recorded” stand apart in the source; their conditions may differ.

Key:
[1] = Stability of ZST316 and L-257 in frozen plasma; type: in vitro ADME, mice; conditions: for Mean found value, Stability −20 °C / Accuracy (%), Stability −20 °C: plasma QC, one month at −20 °C; for Mean found value, Stability −20 °C: n=3; for Accuracy (%), Stability −20 °C: percent of nominal
Method: The stability of ZST316 and L-257 in plasma was assessed by analysing QC samples containing both compounds after prolonged storage in the same conditions of the study samples.
Stability was determined by analysing 3 QCs per concentration level immediately after the preparation, and 3 QCs per concentration level after one month of storage at −20 °C. The analytes were considered stable at each QC concentration when the freshly prepared samples and the stability test samples differed by no more than 15% from the nominal concentrations.

DDAH1 = conditions: cited from earlier work
[2] = Tumour distribution of ZST316 and L-257 after intraperitoneal ZST316 in MDA-MB-231 TNBC xenograft (HPLC-MS/MS); type: in vivo, SCID mice; conditions: for time intra-tumour concentration remained above the IC50 and Ki values for DDAH1 inhibition: estimated
Method: (§1) Six-week-old female severe combined immunodeficiency disease (SCID) mice (n = 24; Charles River Laboratories Italia S.r.L., Calco, Lecco, Italy), were housed under rigorous standards and handled under pathogen-free conditions in the Animal Care Facilities of the Mario Negri Institute for Pharmacological Research (Milan, Italy).
(§2) Two ×10^6 (in 10 μL) MDA-MB-231 TNBC cells were transplanted into the mammary fat pad. Tumour growth was regularly monitored with a calliper and treatment with ZST316 was given when the tumour volume reached 400–500 mm^3. Mice received either a single dose (acute treatment) or a daily dose of ZST316 30 mg/Kg intraperitoneally for five days (chronic treatment).
(§3) Plasma and tumour tissue (n = 3 mice/each time point) were sampled at 1, 8 and 24 h after treatment (on day 5 for the chronic treatment). To collect plasma, mice were anesthetized by isoflurane, the blood was drained from the retro-orbital plexus into heparinised tubes and centrifuged for 10 min at 4000× g at 4 °C. Tumours were collected and immediately frozen. Plasma and tumour samples were stored at −20 °C until analysis.
Control MDA-MB-231 TNBC cell tumours were homogenized with NH4COOH 50 mM (1:4, w:v). The homogenate (90 μL) was spiked with 5 μL of ZST316 and L-257 working solutions prepared in the range of 100–10,000 ng/mL generating seven tumour calibration standards in the range 25–5000 ng/g. The calibration curve included also a blank and a zero blank standard plasma sample (processed with IS). To prepare QC samples, 90 μL of the homogenate was mixed with an appropriate amount of QC working solutions to obtain QC plasma samples at the nominal concentration of 75, 375, and 1250 ng/g.
The procedure was similar to that described for plasma in Section 3.3.2.
(§4) Reversed-phase chromatography was performed under gradient conditions with separation on a HILIC column, C18, 3 μm, 100 A, 2.1 × 150 mm, Waters (Milford, MA, USA), coupled with a 3 μm, 3.9 × 5.0 mm guard column of the same material at the flow rate of 0.2 mL/min. Gradient features were: 10% mobile phase (MP) A (NH4HCO2 10 mM, 10% CH3CN, 0.1% HCOOH) and 90% MP B (CH3CN, 0.1% HCOOH) as initial constant condition; then to 90% MP A in 6 min and constant condition for 1.5 min. Return to start condition in 0.5 min and conditioning for 5.5 min. Total run time: 13.5 min. Analyte detection and quantification were performed using tandem mass spectrometry (MS/MS) operating in positive ionization mode as previously reported for ZST316 and ZST152 [31].

[3] = Plasma pharmacokinetics of ZST316 and L-257 after intraperitoneal ZST316 in MDA-MB-231 xenograft mice (HPLC-MS/MS); type: in vivo, SCID mice
Method: as §1, §2, §3
To assay ZST316 and L-257, 10 μL of IS (ZST152 WS: 500 ng/mL) were added to 100 μL of study plasma samples, standards, and QCs in a polypropylene tube. The samples were then added with 10 μL of NH4COOH 50 mM, mixed and added with 400 μL CH3OH:0.1% HCOOH, vortex mixed again and centrifuged at 13,200 rpm for 10 min at 4 °C. The supernatant was transferred to a 1.5 mL Eppendorf tube, dried under nitrogen flow and reconstituted with 100 μL of mobile phase (MP) A:B (1:1, v/v). Finally, the samples were centrifuged at 13,200 rpm for 10 min at 4 °C and the supernatant transferred into vials for HPLC-MS/MS analysis.
as §4

[4] = acute (single dose) ZST316 30 mg/Kg i.p., 1 h
[5] = acute ZST316 30 mg/Kg i.p., 1 h
[6] = acute ZST316 30 mg/Kg i.p., 8 h
[7] = acute ZST316 30 mg/Kg i.p., 8 h, n=3
[8] = acute ZST316 30 mg/Kg i.p., 24 h
[9] = acute ZST316 30 mg/Kg i.p., approximately estimated due to limited time points
[10] = chronic (five-day) ZST316 30 mg/Kg i.p. daily, 1 h
[11] = chronic (five-day) ZST316 30 mg/Kg i.p. daily, 24 h
[12] = chronic ZST316 30 mg/Kg i.p. daily
[13] = chronic ZST316 30 mg/Kg i.p. daily, day 5, 1 h
[14] = chronic ZST316 30 mg/Kg i.p. daily, day 5, 8 h
[15] = chronic ZST316 30 mg/Kg i.p. daily, day 5, 8 h, n=3
[16] = chronic ZST316 30 mg/Kg i.p. daily, day 5, 24 h
[17] = chronic ZST316 30 mg/Kg i.p. daily, approximately estimated due to limited time points
[18] = range over acute and chronic treatment

## COCCNC(N)=NCCC[C@H](N)C(=O)O [L-257]
[1]; at least one month at −20 °C
  stability in frozen plasma: stable
[1]; actual value 15.00 ng/mL
  Mean found value, Stability −20 °C: 15.8 ng/mL
  Accuracy (%), Stability −20 °C: 105.6%
[1]; actual value 75.00 ng/mL
  Mean found value, Stability −20 °C: 75.7 ng/mL
  Accuracy (%), Stability −20 °C: 101.0%
[1]; actual value 250.00 ng/mL
  Mean found value, Stability −20 °C: 259.5 ng/mL
  Accuracy (%), Stability −20 °C: 103.8%
DDAH1; dotted line in figures
  Ki: 7 µM
DDAH1; equivalent of 7 μM
  Ki expressed as concentration: 1.625 µg/mL
[2]; [4]
  mean intra-tumour concentration: 3.5 µg/g
[2]; acute (single dose) ZST316 30 mg/Kg i.p., 24 h
  mean intra-tumour concentration: 0.04 µg/g
[2]; acute ZST316 30 mg/Kg i.p.
  Cmax tumour: 3.50 μg/g and 15.08 μM
  tumour AUC: 23.9 µg·h/g
[2]; [5]
  tumour concentration, individual mice: 3590 ng/g and 2810 ng/g and 4090 ng/g and 15.5 µM and 12.1 µM and 17.6 µM
[2]; [6]
  tumour concentration, individual mice: 225 ng/g and 1060 ng/g and 2.8 µM and 0.97 µM and 4.57 µM and 651 ng/g
[2]; [7]
  mean tumour concentration: 645 ng/g and 2.78 μM
[2]; [8]
  tumour concentration, individual mice: 30.7 ng/g and 33.1 ng/g and 56.1 ng/g and 0.13 µM and 0.14 µM and 0.24 µM
[2]; [9]
  half-life tumour: 3.6 h
[2]; after acute ZST316 treatment
  time intra-tumour concentration remained above the IC50 and Ki values for DDAH1 inhibition: 4 h
[2]; after chronic ZST316 treatment
  time intra-tumour concentration remained above the IC50 and Ki values for DDAH1 inhibition: 3.5 h
[2]; [10]
  mean intra-tumour concentration: 3.24 µg/g
[2]; [11]
  mean intra-tumour concentration: 0.10 µg/g
[2]; [12]
  Cmax tumour: 3.24 μg/g and 13.96 μM
  tumour AUC: 20.3 µg·h/g
[2]; [13]
  tumour concentration, individual mice: 3550 ng/g and 2810 ng/g and 3350 ng/g and 15.29 µM and 12.10 µM and 14.43 µM
[2]; [14]
  tumour concentration, individual mice: 413 ng/g and 403 ng/g and 326 ng/g and 1.78 µM and 1.74 µM and 1.40 µM
[2]; [15]
  mean tumour concentration: 381 ng/g and 1.64 μM
[2]; [16]
  mean tumour concentration: 97 ng/g
  tumour concentration, individual mice: 35.5 ng/g and 159 ng/g and < LOQ and 0.15 µM and 0.68 µM and 0.05 µM
[2]; chronic ZST316 30 mg/Kg i.p. daily, day 5, 24 h, n=3
  mean tumour concentration: 0.30 µM
[2]; [17]
  half-life tumour: 4.9 h
[2]; [18]
  half-life tumour: 3.6 to 4.9 h
[2]; representative chromatogram, sample taken at 24 h after acute treatment (b8)
  measured concentration in unknown study tumour sample (Figure 3): 30.7 ng/g
[3]; ZST316 30 mg/Kg i.p. daily for five days, day 5 vs day 1
  accumulation in plasma and tumour during chronic treatment: without accumulation; also recorded: no accumulation
[3]; [4]
  mean plasma concentration: 2.02 µg/mL
[3]; acute ZST316 30 mg/Kg i.p.
  Cmax: 8.7 µM
  Cmax plasma: 2020 ng/mL
  Plasma AUC1–24 h: 0.061
[3]; acute ZST316 30 mg/Kg i.p. (day 1)
  Plasma AUC1–24 h: 14.1 µg·h/mL
[3]; [5]
  plasma concentration, individual mice: 2610 ng/mL and 1700 ng/mL and 1760 ng/mL and 11.24 µM and 7.32 µM and 7.58 µM
[3]; [6]
  plasma concentration, individual mice: 272 ng/mL and 382 ng/mL and 2.16 µM and 1.17 µM and 1.65 µM and 502 ng/mL
[3]; [7]
  mean plasma concentration: 385 ng/mL and 1.66 μM
[3]; [8]
  plasma concentration, individual mice: 38 ng/mL and 32.5 ng/mL and 47.8 ng/mL and 0.16 µM and 0.14 µM and 0.21 µM
[3]; [9]
  half-life plasma: 4.2 h
[3]; [10]
  mean plasma concentration: 1.60 µg/mL
[3]; [11]
  mean plasma concentration: 0.06 µg/mL
[3]; [12]
  Cmax: 6.89 µM
  Cmax plasma: 1600 ng/mL
  Plasma AUC1–24 h: 0.044
[3]; chronic ZST316 30 mg/Kg i.p. daily (day 5)
  Plasma AUC1–24 h: 10.3 µg·h/mL
[3]; [13]
  plasma concentration, individual mice: 1600 ng/mL and 1500 ng/mL and 1710 ng/mL and 6.89 µM and 6.46 µM and 7.37 µM
[3]; [14]
  plasma concentration, individual mice: 249 ng/mL and 136 ng/mL and 0.90 µM and 1.07 µM and 0.59 µM and 209 ng/mL
[3]; [15]
  mean plasma concentration: 198 ng/mL and 0.85 μM
[3]; [16]
  plasma concentration, individual mice: 58.8 ng/mL and 95.2 ng/mL and 29.1 ng/mL and 0.25 µM and 0.41 µM and 0.13 µM
[3]; [17]
  half-life plasma: 5.3 h
[3]; [18]
  half-life plasma: 4.2 to 5.3 h
[3]; representative chromatogram, sample taken at 1 h after acute treatment (b8)
  measured concentration in unknown study plasma sample (Figure 2): 1710 ng/mL
